Measurements reported in PubChem BioAssay (NCI).
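96-well plates; 48 h exposure; 5 concentrations. Endpoints by linear interpolation between flanking doses. Not reached: highest tested concentration assigned. Here, GI50 denotes the concentration required for 50% inhibition of growth. TGI: total growth inhibition.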

Key:
Test in all cases: DTP human tumour cell line panel, 48 h
[1] = tested on: NCI-H522 lung
[2] = tested on: MDA-MB-231 breast
[3] = tested on: HL-60(TB) leukemia
[4] = tested on: M14 melanoma
[5] = tested on: HS 578T breast
[6] = tested on: SW-620 colon
[7] = tested on: SK-MEL-28 melanoma
[8] = tested on: IGROV1 ovarian
[9] = tested on: SF-539 CNS
[10] = tested on: SF-295 CNS
[11] = tested on: NCI-H226 lung
[12] = tested on: EKVX NSCLC
[13] = tested on: MDA-N
[14] = tested on: NCI/ADR-RES ovarian
[15] = tested on: 786-0 renal
[16] = tested on: HT29 colon
[17] = tested on: OVCAR-4 ovarian
[18] = tested on: CAKI-1 renal
[19] = tested on: NCI-H460 lung
[20] = tested on: U251 CNS
[21] = tested on: MALME-3M melanoma
[22] = tested on: PC-3 prostate
[23] = tested on: MDA-MB-435
[24] = tested on: DU-145 prostate
[25] = tested on: COLO 205 colon
[26] = tested on: SNB-75 CNS
[27] = tested on: HCT-116 colon
[28] = tested on: OVCAR-8 ovarian
[29] = tested on: BT-549 breast
[30] = tested on: NCI-H23 lung
[31] = tested on: KM12 colon
[32] = tested on: TK-10 renal
[33] = tested on: MCF7 breast
[34] = tested on: SF-268 CNS
[35] = tested on: ACHN renal
[36] = tested on: RXF 393 renal
[37] = tested on: UO-31 renal
[38] = tested on: SN12C renal
[39] = tested on: SK-MEL-2 melanoma
[40] = tested on: SK-MEL-5 melanoma
[41] = tested on: A498 renal
[42] = tested on: OVCAR-3 ovarian
[43] = tested on: UACC-62 melanoma
[44] = tested on: LOX IMVI melanoma
[45] = tested on: SR leukemia
[46] = tested on: T-47D breast
[47] = tested on: HOP-92 NSCLC
[48] = tested on: HCT-15 colon
[49] = tested on: RPMI-8226 leukemia
[50] = tested on: UACC-257 melanoma
[51] = tested on: OVCAR-5 ovarian
[52] = tested on: K-562 leukemia
[53] = tested on: SNB-19 CNS
[54] = tested on: HOP-62 NSCLC
[55] = tested on: A549 NSCLC
[56] = tested on: SK-OV-3 ovarian
[57] = tested on: MOLT-4 leukemia
[58] = tested on: HCC-2998 colon
[59] = tested on: CCRF-CEM leukemia

O=S(O)O.O=S(O)O.[Co].[NH2-].[NH2-].[NH2-].[NH2-]
GI50 [1]: > 100 µM
TGI [1]: > 100 µM
GI50 [2]: > 100 µM
TGI [2]: > 100 µM
GI50 [3]: > 100 µM
TGI [3]: > 100 µM
GI50 [4]: > 100 µM
TGI [4]: > 100 µM
GI50 [5]: > 100 µM
TGI [5]: > 100 µM
GI50 [6]: > 100 µM
TGI [6]: > 100 µM
GI50 [7]: > 100 µM
TGI [7]: > 100 µM
GI50 [8]: > 100 µM
TGI [8]: > 100 µM
GI50 [9]: > 100 µM
TGI [9]: > 100 µM
GI50 [10]: > 100 µM
TGI [10]: > 100 µM
GI50 [11]: > 100 µM
TGI [11]: > 100 µM
GI50 [12]: > 100 µM
TGI [12]: > 100 µM
GI50 [13]: > 100 µM
TGI [13]: > 100 µM
GI50 [14]: > 100 µM
TGI [14]: > 100 µM
GI50 [15]: > 100 µM
TGI [15]: > 100 µM
GI50 [16]: > 100 µM
TGI [16]: > 100 µM
GI50 [17]: > 100 µM
TGI [17]: > 100 µM
GI50 [18]: > 100 µM
TGI [18]: > 100 µM
GI50 [19]: > 100 µM
TGI [19]: > 100 µM
GI50 [20]: > 100 µM
TGI [20]: > 100 µM
GI50 [21]: > 100 µM
TGI [21]: > 100 µM
GI50 [22]: > 100 µM
TGI [22]: > 100 µM
GI50 [23]: > 100 µM
TGI [23]: > 100 µM
GI50 [24]: > 100 µM
TGI [24]: > 100 µM
GI50 [25]: > 100 µM
TGI [25]: > 100 µM
GI50 [26]: > 100 µM
TGI [26]: > 100 µM
GI50 [27]: > 100 µM
TGI [27]: > 100 µM
GI50 [28]: > 100 µM
TGI [28]: > 100 µM
GI50 [29]: > 100 µM
TGI [29]: > 100 µM
GI50 [30]: > 100 µM
TGI [30]: > 100 µM
GI50 [31]: > 100 µM
TGI [31]: > 100 µM
GI50 [32]: > 100 µM
TGI [32]: > 100 µM
GI50 [33]: > 100 µM
TGI [33]: > 100 µM
GI50 [34]: > 100 µM
TGI [34]: > 100 µM
GI50 [35]: > 100 µM
TGI [35]: > 100 µM
GI50 [36]: > 100 µM
TGI [36]: > 100 µM
GI50 [37]: > 100 µM
TGI [37]: > 100 µM
GI50 [38]: > 100 µM
TGI [38]: > 100 µM
GI50 [39]: > 100 µM
TGI [39]: > 100 µM
GI50 [40]: > 100 µM
TGI [40]: > 100 µM
GI50 [41]: > 100 µM
TGI [41]: > 100 µM
GI50 [42]: > 100 µM
TGI [42]: > 100 µM
GI50 [43]: > 100 µM
TGI [43]: > 100 µM
GI50 [44]: > 100 µM
TGI [44]: > 100 µM
GI50 [45]: > 100 µM
TGI [45]: > 100 µM
GI50 [46]: > 100 µM
TGI [46]: > 100 µM
GI50 [47]: > 100 µM
TGI [47]: > 100 µM
GI50 [48]: > 100 µM
TGI [48]: > 100 µM
GI50 [49]: > 100 µM
TGI [49]: > 100 µM
GI50 [50]: > 100 µM
TGI [50]: > 100 µM
GI50 [51]: > 100 µM
TGI [51]: > 100 µM
GI50 [52]: > 100 µM
TGI [52]: > 100 µM
GI50 [53]: > 100 µM
TGI [53]: > 100 µM
GI50 [54]: > 100 µM
TGI [54]: > 100 µM
GI50 [55]: > 100 µM
TGI [55]: > 100 µM
GI50 [56]: > 100 µM
TGI [56]: > 100 µM

O=C1N[C@H]2C(=O)c3c(Br)sc(Br)c3[C@H]2O1
TGI [1]: 3.22 µM
TGI [2]: 22.4 µM
TGI [57]: 5.25 µM
TGI [4]: 10.4 µM
TGI [5]: 58.6 µM
TGI [6]: 4.76 µM
TGI [7]: 10.7 µM
TGI [8]: 25.3 µM
TGI [9]: 32.1 µM
TGI [10]: 37 µM
TGI [11]: 34.6 µM
TGI [12]: 13 µM
TGI [13]: 20.1 µM
TGI [14]: 39 µM
TGI [15]: 24.1 µM
TGI [16]: 6.59 µM
TGI [17]: 31.3 µM
TGI [18]: 9.81 µM
TGI [19]: 35 µM
TGI [20]: 8.87 µM
TGI [21]: 11.3 µM
TGI [22]: 16.4 µM
TGI [23]: 26.7 µM
TGI [24]: 28.9 µM
TGI [25]: 8.17 µM
TGI [26]: 31.4 µM
TGI [27]: 7.33 µM
TGI [28]: 13 µM
TGI [29]: 28.3 µM
TGI [30]: 17.7 µM
TGI [31]: > 55.5 µM
TGI [32]: 41 µM
TGI [33]: 25.4 µM
TGI [34]: 14.2 µM
TGI [35]: 18.1 µM
TGI [36]: 10.4 µM
TGI [37]: 4.22 µM
TGI [38]: 11.4 µM
TGI [39]: 31.9 µM
TGI [40]: 27.7 µM
TGI [41]: 33.2 µM
TGI [42]: 17 µM
TGI [43]: 26.7 µM
TGI [44]: 11.4 µM
TGI [45]: 6.27 µM
TGI [46]: 55 µM
TGI [47]: 28.9 µM
TGI [58]: 24.2 µM
TGI [48]: 4 µM
TGI [49]: > 45 µM
TGI [50]: 21.7 µM
TGI [51]: 34.3 µM
TGI [59]: 3.63 µM
TGI [52]: > 21.7 µM
TGI [53]: 30.7 µM
TGI [54]: 44.5 µM
TGI [55]: 40.4 µM
TGI [56]: 34.7 µM

c1ccc(/C(=N\Nc2nc3ccccc3[nH]2)c2ccccn2)cc1
TGI [1]: 0.69 µM
TGI [2]: 41.2 µM
TGI [57]: 51.9 µM
TGI [4]: 1.89 µM
TGI [5]: 51.7 µM
TGI [6]: > 69.4 µM
TGI [7]: 12.8 µM
TGI [8]: 1.31 µM
TGI [9]: 1.64 µM
TGI [10]: 9.26 µM
TGI [11]: 2.09 µM
TGI [12]: 2.96 µM
TGI [13]: 18.4 µM
TGI [14]: 0.842 µM
TGI [15]: 2.57 µM
TGI [16]: 2.69 µM
TGI [17]: 4.99 µM
TGI [18]: 8.79 µM
TGI [19]: 13.1 µM
TGI [20]: > 28.5 µM
TGI [21]: 8.31 µM
TGI [22]: 37.7 µM
TGI [23]: 13.7 µM
TGI [24]: > 100 µM
TGI [25]: 3.31 µM
TGI [26]: 3.85 µM
TGI [27]: 4.52 µM
TGI [28]: 1.05 µM
TGI [29]: 14.5 µM
TGI [30]: 14.5 µM
TGI [31]: 17 µM
TGI [32]: 3.82 µM
TGI [33]: 5.45 µM
TGI [34]: > 45.9 µM
TGI [35]: 2 µM
TGI [36]: 14.4 µM
TGI [37]: 6.73 µM
TGI [38]: > 21.1 µM
TGI [39]: 21.4 µM
TGI [40]: 4.66 µM
TGI [41]: 5.14 µM
TGI [42]: 2.99 µM
TGI [43]: 6.23 µM
TGI [44]: 7.44 µM
TGI [45]: > 31.8 µM
TGI [46]: 27 µM
TGI [47]: 0.887 µM
TGI [58]: 4.1 µM
TGI [48]: 5.83 µM
TGI [49]: 1.07 µM
TGI [50]: 4.63 µM
TGI [51]: 4.47 µM
TGI [59]: 0.891 µM
TGI [52]: > 100 µM
TGI [53]: > 100 µM
TGI [54]: 2.12 µM
TGI [55]: 22.1 µM
TGI [56]: 2.02 µM
